Experimental findings from PubChem BioAssay AID328 (DTP/NCI, 2004) are described below.

Several values for one entry are separate records, joined by “and”; a condition that tells them apart may be missing. Equal values may be shown once. Inconclusive results and toxic doses are left out.

This assay deals with BDF1 mice, P388 leukemia ip, median survival T/C. The assay is described as follows: NCI In Vivo Anticancer Drug Screen. Data for tumor model P388 Leukemia (intraperitoneal) in B6D2F1 (BDF1) mice. As to conditions: endpoint: median survival time, higher = longer survival. In short, it runs like this:
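Compound-treated tumour-bearing mice were compared with vehicle-treated controls. Survival was recorded, and the value is the treated-group measurement divided by the control-group measurement (T/C).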

Where [1] appears, read: dose: 50.0 mg/kg/injection, schedule: Q01DX009 (ip), vehicle: other.
[2] abbreviates: dose: 100.0 mg/kg/injection, schedule: Q01DX009 (ip), vehicle: other.
Where [3] appears, read: dose: 400.0 mg/kg/injection, schedule: Q01DX009 (ip), vehicle: other.
Setting [4] is: dose: 50.0 mg/kg/injection, schedule: Q01DX009 (ip), vehicle: saline with Tween-80.
Setting [5] is: dose: 100.0 mg/kg/injection, schedule: Q01DX009 (ip), vehicle: saline with Tween-80.
[6] abbreviates: dose: 12.5 mg/kg/injection, schedule: Q01DX009 (ip), vehicle: saline with Tween-80.
[7] abbreviates: dose: 25.0 mg/kg/injection, schedule: Q01DX009 (ip), vehicle: saline with Tween-80.

As for `C/C(CCCCl)=N/NC(N)=S`, the T/C was 86 % of control (dose: 75.0 mg/kg/injection, schedule: Q01DX009 (ip), vehicle: saline) and 86 % of control (dose: 115.0 mg/kg/injection, schedule: Q01DX009 (ip), vehicle: saline).

Consider `CCN(CC)C(=O)c1cccc(COc2ccc(N3C(N)=NC(N)=NC3(C)C)cc2Cl)c1`, for which the T/C is 110 % of control (dose: 16.5 mg/kg/injection, schedule: Q01DX009 (ip), vehicle: saline); 120 % of control (dose: 25.0 mg/kg/injection, schedule: Q01DX009 (ip), vehicle: saline); 120 % of control (dose: 37.5 mg/kg/injection, schedule: Q01DX009 (ip), vehicle: saline).

In the case of `CC1(C2CC(=O)c3c(O)ccc(O)c3C2)OCCO1` (stereo not drawn), the T/C (dose: 25.0 mg/kg/injection, schedule: Q01DX009 (ip), vehicle: other) was 107 % of control; the T/C under setting [1] was 100 % of control; the T/C under setting [2] was 98 % of control; the T/C (dose: 200.0 mg/kg/injection, schedule: Q01DX009 (ip), vehicle: other) was 98 % of control; the T/C under setting [3] was 116 % of control.

As to `O=C(/C=C/c1ccc(OCc2ccccc2)cc1)c1ccccc1Br`, the T/C by setting is: under setting [4], 96 % of control; under setting [5], 107 % of control; (dose: 200.0 mg/kg/injection, schedule: Q01DX009 (ip), vehicle: saline with Tween-80) 105 % of control.

For `Clc1ccc(-c2ncc3cnccn23)cc1Cl`, the T/C by setting is: (dose: 0.78 mg/kg/injection, schedule: Q04DX003 (ip), vehicle: saline with Tween-80) 92 % of control; (dose: 1.56 mg/kg/injection, schedule: Q01DX009 (ip), vehicle: saline with Tween-80) 89 % of control; (dose: 1.56 mg/kg/injection, schedule: Q04DX003 (ip), vehicle: saline with Tween-80) 90 % of control; (dose: 3.12 mg/kg/injection, schedule: Q01DX009 (ip), vehicle: saline with Tween-80) 95 % of control; (dose: 3.12 mg/kg/injection, schedule: Q04DX003 (ip), vehicle: saline with Tween-80) 94 % of control; (dose: 6.25 mg/kg/injection, schedule: Q01DX009 (ip), vehicle: saline with Tween-80) 95 % of control. Further, the T/C by setting is: (dose: 6.25 mg/kg/injection, schedule: Q04DX003 (ip), vehicle: saline with Tween-80) 100 % of control; under setting [6], 99 % of control; under setting [7], 100 % of control; under setting [4], 100 % of control.

Consider `CCOC(=O)C(C(C)=O)C(=O)OCC`, for which the T/C by setting is: (dose: 25.0 mg/kg/injection, schedule: Q04DX003 (ip), vehicle: other) 90 % of control; under setting [1], 113 % of control; (dose: 50.0 mg/kg/injection, schedule: Q04DX003 (ip), vehicle: other) 99 % of control; under setting [2], 100 % of control; (dose: 100.0 mg/kg/injection, schedule: Q04DX003 (ip), vehicle: other) 99 % of control; (dose: 200.0 mg/kg/injection, schedule: Q04DX003 (ip), vehicle: other) 92 % of control. The T/C is, setting by setting: under setting [3], 88 % of control; (dose: 400.0 mg/kg/injection, schedule: Q04DX003 (ip), vehicle: other) 110 % of control.

`N#CCc1nc2ccccc2[nH]1`: the T/C by setting is: (dose: 50.0 mg/kg/injection, schedule: Q01DX009 (ip), vehicle: Klucel (hydroxypropylcellulose) (HPC)) 104 % of control; (dose: 100.0 mg/kg/injection, schedule: Q01DX009 (ip), vehicle: Klucel (hydroxypropylcellulose) (HPC)) 109 % of control; (dose: 200.0 mg/kg/injection, schedule: Q01DX009 (ip), vehicle: Klucel (hydroxypropylcellulose) (HPC)) 95 % of control.

Regarding `[O-][n+]1c(CCl)nc2cccc3c2c1-c1ccccc1-3`, the T/C is, setting by setting: under setting [6], 106 % of control; under setting [7], 111 % of control and 121 % of control (2×); under setting [4], 121 % of control; under setting [5], 93 % of control.

Take `COc1ccc(-c2c3c(cc4cc5c(cc24)OCO5)C(=O)OC3)cc1OC`: the T/C reads like this: (dose: 0.25 mg/kg/injection, schedule: Q01DX009 (ip), vehicle: saline + alcohol) 95 % of control; (dose: 0.5 mg/kg/injection, schedule: Q01DX009 (ip), vehicle: saline + alcohol) 88 % of control; (dose: 1.0 mg/kg/injection, schedule: Q01DX009 (ip), vehicle: saline + alcohol) 95 % of control; (dose: 1.5 mg/kg/injection, schedule: Q01DX009 (ip), vehicle: saline + alcohol) 104 % of control; (dose: 2.0 mg/kg/injection, schedule: Q01DX009 (ip), vehicle: saline + alcohol) 88 % of control; (dose: 3.0 mg/kg/injection, schedule: Q01DX009 (ip), vehicle: saline + alcohol) 93 % of control. Besides, the T/C is, setting by setting: (dose: 4.0 mg/kg/injection, schedule: Q01DX009 (ip), vehicle: saline + alcohol) 95 % of control; (dose: 6.0 mg/kg/injection, schedule: Q01DX009 (ip), vehicle: saline + alcohol) 111 % of control; (dose: 8.0 mg/kg/injection, schedule: Q01DX009 (ip), vehicle: saline + alcohol) 104 % of control; (dose: 12.0 mg/kg/injection, schedule: Q01DX009 (ip), vehicle: saline + alcohol) 101 % of control; (dose: 24.0 mg/kg/injection, schedule: Q01DX009 (ip), vehicle: saline + alcohol) 93 % of control; (dose: 25.0 mg/kg/injection, schedule: Q01DX009 (ip), vehicle: saline + alcohol) 94 % of control. Further, the T/C (dose: 50.0 mg/kg/injection, schedule: Q01DX009 (ip), vehicle: saline + alcohol) was 94 % of control; the T/C (dose: 100.0 mg/kg/injection, schedule: Q01DX009 (ip), vehicle: saline + alcohol) was 97 % of control; the T/C (dose: 200.0 mg/kg/injection, schedule: Q01DX009 (ip), vehicle: saline + alcohol) is 86 % of control.

Regarding `Cc1nnc2c(Cl)nccn12`, the T/C was 106 % of control (dose: 100.0 mg/kg/injection, schedule: Q01DX001 (ip), vehicle: saline with Tween-80) and 106 % of control (dose: 200.0 mg/kg/injection, schedule: Q01DX001 (ip), vehicle: saline with Tween-80).

Consider `c1ccc(CNCCN(Cc2ccccc2)Cc2ccccc2)cc1`, for which the T/C is 105 % of control (dose: 0.78 mg/kg/injection, schedule: Q01DX009 (ip), vehicle: water); 106 % of control (dose: 1.56 mg/kg/injection, schedule: Q01DX009 (ip), vehicle: water); 99 % of control and 101 % of control (dose: 3.12 mg/kg/injection, schedule: Q01DX009 (ip), vehicle: water); 93 % of control and 110 % of control (dose: 6.25 mg/kg/injection, schedule: Q01DX009 (ip), vehicle: water); 110 % of control and 115 % of control (dose: 12.5 mg/kg/injection, schedule: Q01DX009 (ip), vehicle: water); 101 % of control (dose: 25.0 mg/kg/injection, schedule: Q01DX009 (ip), vehicle: water).

Regarding `CCC(C)(O)C(=O)OC1C(=O)OC2CC3C(C)CC(=O)C(O)C3(C)C3C4(O)OCC23C1C(C)C4O` (stereo not drawn), the T/C reads like this: (dose: 0.12 mg/kg/injection, schedule: Q01DX009 (ip), vehicle: saline with Tween-80) 121 % of control; (dose: 0.25 mg/kg/injection, schedule: Q01DX009 (ip), vehicle: saline with Tween-80) 118 % of control; (dose: 0.5 mg/kg/injection, schedule: Q01DX009 (ip), vehicle: saline with Tween-80) 116 % of control; (dose: 1.0 mg/kg/injection, schedule: Q01DX009 (ip), vehicle: saline with Tween-80) 121 % of control; (dose: 8.0 mg/kg/injection, schedule: Q01DX009 (ip), vehicle: saline with Tween-80) 122 % of control; (dose: 16.0 mg/kg/injection, schedule: Q01DX009 (ip), vehicle: saline with Tween-80) 152 % of control.

Regarding `CCOC(=O)c1c/c(=C(\C)O)c(=O)n2c1nc1ccccc12`, the T/C runs as follows: (dose: 100.0 mg/kg/injection, schedule: Q04DX002 (ip), vehicle: saline with Tween-80) 100 % of control; (dose: 200.0 mg/kg/injection, schedule: Q04DX002 (ip), vehicle: saline with Tween-80) 87 % of control; (dose: 400.0 mg/kg/injection, schedule: Q04DX002 (ip), vehicle: saline with Tween-80) 103 % of control.

`CC(O)C(=O)N1Cc2cc3ccccc3nc2C1` (stereo not drawn): the T/C is 95 % of control (dose: 50.0 mg/kg/injection, schedule: Q01DX001 (ip), vehicle: saline sonified); 104 % of control (dose: 100.0 mg/kg/injection, schedule: Q01DX001 (ip), vehicle: saline sonified); 95 % of control (dose: 200.0 mg/kg/injection, schedule: Q01DX001 (ip), vehicle: saline sonified).
